Molecular target: T1, Bcl-2 protein (Recombinant Human Bcl-2 Protein) (Homo sapiens, UniProt P10415)
T1 construct: purchased Novus NBP2-34889
Assay: Binding evaluation of mixture library compounds to Bcl-2 using AS-MS (affinity selection mass spectrometry)
Details: for ASMS ratio (%) n = 1 / ASMS ratio (%) n = 2: ASMS Ratio(%)=(A−C)/B×100; for ASMS ratio (%) n = 1: replicate n = 1; for ASMS ratio (%) n = 2: replicate n = 2
Outline: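 Readout is ASMS Ratio (%), (A−C)/B×100, from reversed-phase LC/MS of SEC-passed extracts, with protein-free unfiltered standard (B) and protein-free SEC blank (C). Recombinant human Bcl-2 at 20 μM final met ~1200 pooled compounds at […] each for 1 h, 23° C., dark, in Tris-HCl pH 7.4 buffer.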

[1] = AS-MS on the mixture of 1200 library compounds
[2] = AS-MS, mixture of 1200 compounds, Bcl-2

T1 sequence (P10415 whole entry): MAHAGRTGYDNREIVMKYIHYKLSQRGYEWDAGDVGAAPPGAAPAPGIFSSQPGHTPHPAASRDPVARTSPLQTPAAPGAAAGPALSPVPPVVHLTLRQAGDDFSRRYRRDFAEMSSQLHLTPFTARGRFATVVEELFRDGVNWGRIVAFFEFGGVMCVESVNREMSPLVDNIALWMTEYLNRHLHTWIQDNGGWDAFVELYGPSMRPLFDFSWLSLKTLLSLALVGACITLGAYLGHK

`CCOc1cncc(-c2ccc(C(=O)N3CCN(c4ccc(C(=O)N(C)CC56CC7CC(CC(C7)C5)C6)nn4)CC3)c3ccccc23)c1` [B3A014-01, N-(1-Adamantylmethyl)-6-[4-[4-(5-ethoxypyridin-3-yl)naphthalene-1-carbonyl]piperazin-1-yl]-N-methylpyridazine-3-carboxamide] was tested, and the “ASMS ratio (%) n = 1” value [1] was 0.6% and the “ASMS ratio (%) n = 2” value [1] was 0.8%.

In the case of `CCOc1cccc(C#Cc2cncc(C(=O)N3CCN(c4ccc(C(=O)N(C)CC56CC7CC(CC(C7)C5)C6)nn4)CC3)c2)c1` [B3A009-01, N-(1-Adamantylmethyl)-6-[4-[5-[2-(3-ethoxyphenyl)ethynyl]pyridine-3-carbonyl]piperazin-1-yl]-N-methylpyridazine-3-carboxamide], the “ASMS ratio (%) n = 1” value [1] is reported as 0.6% and the “ASMS ratio (%) n = 2” value [1] is reported as −0.3%.

With `CCOc1cncc(-c2cc(OC)c(CN3CCN(c4ccc(C(=O)NS(=O)(=O)CC56CC7CC(CC(C7)C5)C6)cc4)CC3)c(OC)c2)c1` [B2A060-01, N-(1-Adamantylmethylsulfonyl)-4-[4-[[4-(5-ethoxypyridin-3-yl)-2,6-dimethoxyphenyl]methyl]piperazin-1-yl]benzamide] the “ASMS ratio (%) n = 1” value (AS-MS, mixture library, Bcl-2) was 0.0% and the “ASMS ratio (%) n = 2” value (AS-MS, mixture library, Bcl-2) was 0.0%.

`CCOc1cccc(-c2ccc(C(=O)N3CCN(c4ccc(C(=O)NCC(F)(F)F)nn4)CC3)cc2F)c1` [B1K005-01, 6-[4-[4-(3-Ethoxyphenyl)-3-fluorobenzoyl]piperazin-1-yl]-N-(2,2,2-trifluoroethyl)pyridazine-3-carboxamide] was tested, and the “ASMS ratio (%) n = 1” value [2] was −0.1% and the “ASMS ratio (%) n = 2” value [2] was 0.6%.

For “4-[4-[2-[2-(5-Ethoxypyridin-3-yl)ethynyl]benzoyl]piperazin-1-yl]-N-propylbenzamide [B1M098-01]”, the “ASMS ratio (%) n = 1” value [1] was 0.9% and the “ASMS ratio (%) n = 2” value [1] was 0.3%.

In the case of `CCOc1cncc(-c2cc(CN3CCN(c4ccc(C(=O)NCC56CC7CC(CC(C7)C5)C6)nn4)CC3)cc(OC(F)(F)F)c2)c1` [B1A090-01, N-(1-Adamantylmethyl)-6-[4-[[3-(5-ethoxypyridin-3-yl)-5-(trifluoromethoxy)phenyl]methyl]piperazin-1-yl]pyridazine-3-carboxamide], the “ASMS ratio (%) n = 1” value [2] is reported as 3.3% and the “ASMS ratio (%) n = 2” value [2] is reported as −1.0%.

In the case of `CCOc1cncc(-c2ccccc2CCC(=O)N2CCN(c3ccc(C(=O)Nc4ccc(OC)cc4)cc3)CC2)c1` [B1O034-01, 4-[4-[3-[2-(5-Ethoxypyridin-3-yl)phenyl]propanoyl]piperazin-1-yl]-N-(4-methoxyphenyl)benzamide], the “ASMS ratio (%) n = 1” value [1] is reported as 0.1% and the “ASMS ratio (%) n = 2” value [1] is reported as 0.2%.

For `CCOc1cncc(-c2cc(CN3CCN(c4ccc(C(=O)NS(C)(=O)=O)cc4)CC3)cc(OC(F)(F)F)c2)c1` [B2I064-01, 4-[4-[[3-(5-Ethoxypyridin-3-yl)-5-(trifluoromethoxy)phenyl]methyl]piperazin-1-yl]-N-methylsulfonylbenzamide], the “ASMS ratio (%)” value (n = 1) was 0.0% and the “ASMS ratio (%)” value (n = 2) was 0.0%.

With `CCOc1cncc(-c2ccccc2CCC(=O)N2CCN(c3ccc(C(=O)N(C)CC45CC6CC(CC(C6)C4)C5)nn3)CC2)c1` [B3A012-01, N-(1-Adamantylmethyl)-6-[4-[3-[2-(5-ethoxypyridin-3-yl)phenyl]propanoyl]piperazin-1-yl]-N-methylpyridazine-3-carboxamide] the “ASMS ratio (%) n = 1” value [1] was 1.4% and the “ASMS ratio (%) n = 2” value [1] was −2.7%.

In the case of `CCOc1cncc(-c2ccc(C(=O)N3CCN(c4ccc(C(=O)NCC(F)(F)F)cc4)CC3)c3ccccc23)c1` [B1K036-01, 4-[4-[4-(5-Ethoxypyridin-3-yl)naphthalene-1-carbonyl]piperazin-1-yl]-N-(2,2,2-trifluoroethyl)benzamide], the “ASMS ratio (%) n = 1” value [2] is reported as 1.1% and the “ASMS ratio (%) n = 2” value [2] is reported as −0.4%.

For “4-[4-[3-tert-Butyl-5-(3-ethoxyphenyl)benzoyl]piperazin-1-yl]-N-propylbenzamide [B1M062-01]”, the “ASMS ratio (%) n = 1” value [2] was 1.6% and the “ASMS ratio (%) n = 2” value [2] was −1.7%.

`CCOc1cncc(-c2ccc(C(=O)N3CCN(c4ccc(C(=O)NS(=O)(=O)CC56CC7CC(CC(C7)C5)C6)nn4)CC3)cc2F)c1` [B2A006-01, N-(1-Adamantylmethylsulfonyl)-6-[4-[4-(5-ethoxypyridin-3-yl)-3-fluorobenzoyl]piperazin-1-yl]pyridazine-3-carboxamide] was tested, and the “ASMS ratio (%) n = 1” value (AS-MS, mixture library, Bcl-2) was 0.0% and the “ASMS ratio (%) n = 2” value (AS-MS, mixture library, Bcl-2) was 0.0%.

In the case of `CCOc1cncc(-c2ccccc2CN2CCN(c3ccc(C(=O)NS(=O)(=O)CC45CC6CC(CC(C6)C4)C5)nn3)CC2)c1` [B2A072-01], the “ASMS ratio (%) n = 1” value (AS-MS, mixture library, Bcl-2) is reported as 12.2% and the “ASMS ratio (%) n = 2” value (AS-MS, mixture library, Bcl-2) is reported as 14.7%.

With `CCOc1cccc(C#Cc2ccccc2CN2CCN(c3ccc(C(=O)NS(=O)(=O)CC45CC6CC(CC(C6)C4)C5)cc3)CC2)c1` [B2A069-01, N-(1-Adamantylmethylsulfonyl)-4-[4-[[2-[2-(3-ethoxyphenyl)ethynyl]phenyl]methyl]piperazin-1-yl]benzamide] the “ASMS ratio (%) n = 1” value (AS-MS, mixture library, Bcl-2) was 4.6% and the “ASMS ratio (%) n = 2” value (AS-MS, mixture library, Bcl-2) was −4.6%.

In the case of `CCOc1cccc(-c2ccc(CN3CCN(c4ccc(C(=O)NS(C)(=O)=O)cc4)CC3)c(OC)c2)c1` [B2I053-01], the “ASMS ratio (%)” value (n = 1) is reported as 0.0% and the “ASMS ratio (%)” value (n = 2) is reported as 0.0%.

`CCOc1cccc(-c2cc(CN3CCN(c4ccc(C(=O)NS(=O)(=O)CC56CC7CC(CC(C7)C5)C6)cc4)CC3)cc(OC(C)C)c2)c1` [B2A057-01, N-(1-Adamantylmethylsulfonyl)-4-[4-[[3-(3-ethoxyphenyl)-5-propan-2-yloxyphenyl]methyl]piperazin-1-yl]benzamide] was tested, and the “ASMS ratio (%) n = 1” value (AS-MS, mixture library, Bcl-2) was −4.8% and the “ASMS ratio (%) n = 2” value (AS-MS, mixture library, Bcl-2) was −5.3%.

`CCOc1cncc(-c2cc(CN3CCN(c4ccc(C(=O)NS(C)(=O)=O)cc4)CC3)cc(OCC)c2)c1` [B2I056-01] was tested, and the “ASMS ratio (%)” value (n = 1) was 0.0% and the “ASMS ratio (%)” value (n = 2) was 0.0%.

`CCOc1cccc(-c2ccc(C(=O)N3CCN(c4ccc(C(=O)NS(=O)(=O)c5ccc(NCCSc6ccccc6)c(C(F)(F)F)c5)cc4)CC3)cc2F)c1` [B2R027-01, 4-[4-[4-(3-Ethoxyphenyl)-3-fluorobenzoyl]piperazin-1-yl]-N-[4-(2-phenylsulfanylethylamino)-3-(trifluoromethyl)phenyl]sulfonylbenzamide] was tested, and the “ASMS ratio (%)” value (n = 1) was −3.7% and the “ASMS ratio (%)” value (n = 2) was 1.2%.

With `CCOc1cncc(-c2ccc(C(C)N3CCN(c4ccc(C(=O)N(CC)CC)cc4)CC3)cc2)c1` (stereo not shown) [B4J098-01, 4-[4-[1-[4-(5-Ethoxypyridin-3-yl)phenyl]ethyl]piperazin-1-yl]-N,N-diethylbenzamide] the “ASMS ratio (%) n = 1” value (AS-MS, mixture library, Bcl-2) was −2.0% and the “ASMS ratio (%) n = 2” value (AS-MS, mixture library, Bcl-2) was −0.2%.

`CCOc1cncc(-c2csc(CN3CCN(c4ccc(C(=O)Nc5ccc(OC)cc5)nn4)CC3)c2)c1` [B1O094-01, 6-[4-[[4-(5-Ethoxypyridin-3-yl)thiophen-2-yl]methyl]piperazin-1-yl]-N-(4-methoxyphenyl)pyridazine-3-carboxamide] was tested, and the “ASMS ratio (%) n = 1” value [1] was 2.2% and the “ASMS ratio (%) n = 2” value [1] was −0.7%.

For `CCOc1cccc(-c2cc(CN3CCN(c4ccc(C(=O)NCC56CC7CC(CC(C7)C5)C6)cc4)CC3)cc(C(F)(F)F)c2)c1` [B1A061-01, N-(1-Adamantylmethyl)-4-[4-[[3-(3-ethoxyphenyl)-5-(trifluoromethyl)phenyl]methyl]piperazin-1-yl]benzamide], the “ASMS ratio (%) n = 1” value [2] was 5.3% and the “ASMS ratio (%) n = 2” value [2] was 1.1%.

In the case of `CCOc1cncc(-c2cc(CN3CCN(c4ccc(C(=O)NCC56CC7CC(CC(C7)C5)C6)nn4)CC3)cc(OCC)c2)c1` [B1A082-01, N-(1-Adamantylmethyl)-6-[4-[[3-ethoxy-5-(5-ethoxypyridin-3-yl)phenyl]methyl]piperazin-1-yl]pyridazine-3-carboxamide], the “ASMS ratio (%) n = 1” value [2] is reported as 3.0% and the “ASMS ratio (%) n = 2” value [2] is reported as 0.2%.

In the case of `CCOc1cncc(-c2cc(CN3CCN(c4ccc(C(=O)N(C)CC56CC7CC(CC(C7)C5)C6)cc4)CC3)cc(OCC)c2)c1` [B3A056-01, N-(1-Adamantylmethyl)-4-[4-[[3-ethoxy-5-(5-ethoxypyridin-3-yl)phenyl]methyl]piperazin-1-yl]-N-methylbenzamide], the “ASMS ratio (%) n = 2” value [1] is reported as 0.0%.

With `CCOc1cccc(-c2cnn(-c3cc(C(=O)N4CCN(c5ccc(C(=O)NCC(F)(F)F)nn5)CC4)cc(C(F)(F)F)c3)c2)c1` [B1K021-01, 6-[4-[3-[4-(3-Ethoxyphenyl)pyrazol-1-yl]-5-(trifluoromethyl)benzoyl]piperazin-1-yl]-N-(2,2,2-trifluoroethyl)pyridazine-3-carboxamide] the “ASMS ratio (%) n = 1” value [2] was −0.5% and the “ASMS ratio (%) n = 2” value [2] was −1.9%.

With `CCOc1cccc(-c2cc(CN3CCN(c4ccc(C(=O)NS(=O)(=O)C(C)(C)C)cc4)CC3)cc(OC(F)(F)F)c2)c1` [B2L063-01, N-tert-Butylsulfonyl-4-[4-[[3-(3-ethoxyphenyl)-5-(trifluoromethoxy)phenyl]methyl]piperazin-1-yl]benzamide] the “ASMS ratio (%)” value (n = 1) was 0.0% and the “ASMS ratio (%)” value (n = 2) was 0.0%.

Source: US20240132431A1, “METHOD FOR ALKYLATING ACIDIC FUNCTIONAL GROUP” (Chugai Seiyaku Kabushiki Kaisha, priority 2021, published 2024)
